Results as given in US11452758B2, “Antimicrobial peptide derived from LL37 peptide and uses thereof” (INDUSTRY-ACADEMIC COOPERATION FOUNDATION, CHOSUN UNIVERSITY, priority 2018, dated 2022).
≈ marks a conversion by molar mass, not a printed value. Where two headings read alike, the source gives them in different places. Where a SMILES comes first, the peptide text is derived from it.

What was measured:
[1] = system: L. monocytogenes KCTC 3710; format: cell-based, Listeria monocytogenes
Description: (§1) To compare the antimicrobial activity among the peptides produced by the method of Example 1, the inventors of the present invention measured the minimal growth inhibitory concentration (MIC), which is minimum concentration of the peptide not allowing any […] of bacterial cells.
(§2) Specifically, the bacterial strains described in the following Table 2 were purchased and cultured to a mid-log phase in MHB (Mueller Hinton Broth) medium. Then, after dilution to bacterial cell concentration of 2×10^5 cells/50 μl, the cells were inoculated to a microtiter plate (NUNC, USA). Thereafter, LL37-1, LL37-2, LL37-3 or LL37-4 peptide which has been synthesized in Example 1 above was subjected to serial dilution, ½ times for each, in a 96-well plate. After adding the peptides in an amount of 50 μl to the cell plate, the cells were cultured for 18 hours at 37° C. By using a microtiter plate reader (Merck Elisa reader, Germany), the absorbance was measured at a wavelength of 600 nm to determine the MIC value of each bacterial strain. As a control group, LL37 as a mother peptide was used and subjected to the same process as above to determine the MIC value of each strain.

E. coli ATCC 25922 = format: cell-based, Escherichia coli
Description: as §1, §2

S. typhimurium KCTC 1925 = format: cell-based, Salmonella typhimurium
Description: as §1, §2

A. baumannii #10 = assay: Antibiofilm activity, Crystal violet staining; format: cell-based, Acinetobacter baumannii; details: 24 hours
Experimental: (§3) To compare the antimicrobial activity among the peptides produced by the method of Example 1, the inventors of the present invention measured the biofilm inhibitory concentration value of the peptide for not allowing any dissociation of bacterial cells.
(§4) Specifically, among the bacterial strains described in the above Table 2, bacteria showing the most favorable biofilm forming were cultured to a mid-log phase in a medium with suitable composition. Then, after dilution to bacterial cell concentration of 1×10^6 cells/50 μl, the cells were inoculated to a microtiter plate. Thereafter, LL37, LL37-1, LL37-2, LL37-3 or LL37-4 peptide which has been synthesized in Example 1 above was diluted, 1/10 times for each, with 10 mM phosphate buffered physiological saline (PBS) in a 96-well plate. After adding the peptide (50 μl) to each well of the plate, the cells were cultured for 24 hours at 37° C. After removing the supernatant completely, the cells were fixed with 100% methanol for 15 minutes and stained for 1 hour with Crystal violet staining solution followed by rinsing for 3 times. Then, after dissolving in 95% ethanol, the absorbance was measured at a wavelength of 595 nm by using a microtiter plate reader to determine the biofilm minimal inhibitory concentration value of each bacterial strain.

A. baumannii #5 = assay: Antibiofilm activity, Crystal violet staining; format: cell-based, Acinetobacter baumannii; details: 24 hours
Experimental: as §3, §4

A. baumannii KCTC 2508 = assay: Antibiofilm activity, Crystal violet staining; format: cell-based, Acinetobacter baumannii; details: 24 hours
Experimental: as §3, §4

[2] = system: Acinetobacter baumannii KCTC 2508; assay: Flow cytometry after PI staining (bacteria membrane); format: cell-based; details: peptide at concentration of MIC, 30 minutes at 37° C.
Experimental: To determine whether or not the peptides prepared by the method of Example 1 have any effect on bacteria membrane, an analysis was made by flow cytometry.
After that, the supernatant was removed by centrifuge (10,000 rpm) and stained with propidium iodide (PI, concentration of 10 μg/ml) for 30 minutes at 4° C. Thereafter, unbound propidium iodide was removed by centrifuge, and the problem of cell aggregation phenomenon was solved by adding physiological saline (PBS) in an amount of 1 ml.

[3] = system: Human macrophage cells (U937) infected with Acinetobacter baumannii KCTC 2508; assay: Expression of inflammatory cytokines, Western blot and real time RT-PCR; format: cell-based; details: U937 infected with A. baumannii KCTC 2508, peptide added 1 hour after infection, sample after 9 hours
Experimental: To see whether or not a change in expression of inflammatory cytokines in macrophage is caused by the peptides that are prepared by the method of above Example 1, determination was made by Western blot and real time reverse transcription polymerase chain reaction.
Specifically, Acinetobacter baumannii KCTC 2508 cells were cultured to a mid-log phase in MHB medium, and then diluted to a cell concentration of 1×10^7 cells/ml in physiological saline. Human macrophage cells (U937) were then infected with the resulting cells in time-dependent manner to yield the first sample, and another macrophage cells were infected with Acinetobacter baumannii KCTC 2508 cells, which have been diluted to a concentration of 1×10^7 cells, and added with, 1 hour after the infection, mother peptide LL37 or the homologous peptide to collect the second sample after 9 hours. Both collected samples were treated with cell lysis buffer to obtain the supernatant (sup) and pellet (lysate). Thereafter, by Western blot and real time reverse transcription polymerase chain reaction, a change in the expression level of inflammatory cytokines was examined.

[4] = system: Acinetobacter baumannii KCTC 2508; format: cell-based; details: for antimicrobial activity after reaction with trypsin: peptide 100 μg/ml with 10.7 nM trypsin, 10 minutes at 37° C., A. baumannii KCTC 2508
Experimental: To determine the activity of the peptides, which have been prepared by the method of Example 1, in the presence of trypsin as one type of proteases, peptide stability against protease was determined by radial diffusion assay.
Specifically, among the bacterial strains that are described in the above Table 2, Acinetobacter baumannii KCTC 2508 cells were cultured to a mid-log phase in MHB medium, and, after diluting the cells to a cell concentration of 2×10^5 cells/10 ml, the cells were admixed with agarose which has been adjusted to final concentration of 1% and then evenly spread and solidified on a Petri dish. After that, the peptide adjusted to a concentration of 100 μg/ml was admixed with 10.7 nM trypsin and reacted for 10 minutes at 37° C. After applying a paper disk (diameter: 6 mm) on the solidified Petri dish, the peptide obtained after the reaction with trypsin was aliquoted thereto in an amount of 25 μl. After culture for 18 hours at 37° C., diameter of the clear zone around the paper disk was measured so that the level of antimicrobial activity for Acinetobacter baumannii KCTC 2508 was determined.

SMILES	Minimal inhibitory concentration ([1]; KCTC 3710, 18 h) [µM]	Minimal inhibitory concentration (E. coli ATCC 25922; ATCC 25922, 18 h) [µM]	Minimal inhibitory concentration (S. typhimurium KCTC 1925; KCTC 1925, 18 h) [µM]	Biofilm forming ability (A. baumannii #10; peptide 2 μM) [%]	Biofilm forming ability (A. baumannii #10; peptide 4 μM) [%]	Biofilm forming ability (A. baumannii #10; peptide 8 μM) [%]	Biofilm forming ability (A. baumannii #10; peptide 16 μM) [%]	Biofilm forming ability (A. baumannii #10; peptide 32 μM) [%]	Biofilm forming ability (A. baumannii #5; peptide 2 μM) [%]	Biofilm forming ability (A. baumannii #5; peptide 4 μM) [%]	Biofilm forming ability (A. baumannii #5; peptide 8 μM) [%]	Biofilm forming ability (A. baumannii #5; peptide 16 μM) [%]	Biofilm forming ability (A. baumannii #5; peptide 32 μM) [%]	Biofilm forming ability (A. baumannii KCTC 2508; peptide 2 μM) [%]	Biofilm forming ability (A. baumannii KCTC 2508; peptide 4 μM) [%]	Biofilm forming ability (A. baumannii KCTC 2508; peptide 8 μM) [%]	Biofilm forming ability (A. baumannii KCTC 2508; peptide 16 μM) [%]	Biofilm forming ability (A. baumannii KCTC 2508; peptide 32 μM) [%]	effect on bacteria membrane (PI fluorescence, flow cytometry) [2]	expression level of HMGB-1 and late cytokine (IL-1b and TNF-α) [3]	further results
CC[C@H](C)[C@H](NC(=O)[C@H](CCCNC(=N)N)NC(=O)[C@H](CCC(N)=O)NC(=O)[C@@H](NC(=O)[C@@H](NC(=O)[C@H](CCCNC(=N)N)NC(=O)[C@H](CCCCN)NC(=O)[C@H](Cc1ccccc1)NC(=O)[C@H](CCCCN)NC(=O)[C@@H](N)CCCCN)[C@@H](C)CC)C(C)C)C(=O)N[C@@H](CCCCN)C(=O)N[C@@H](CC(=O)O)C(=O)N[C@@H](Cc1ccccc1)C(=O)N[C@@H](CC(C)C)C(=O)N[C@@H](CCCNC(=N)N)C(=O)N[C@@H](CC(N)=O)C(N)=O [LL37-2, KKFKRIVQRIKDFLRN-NH2] (H-KKFKRIVQRIKDFLRN-NH2)																					Minimal inhibitory concentration ([1]; L. monocytogenes KCTC 3710, MHB, 18 hours at 37° C.): 16 µM (≈ 33.4 µg/mL); Minimal inhibitory concentration (E. coli ATCC 25922; E. coli ATCC 25922, MHB, 18 hours at 37° C.): 16 µM (≈ 33.4 µg/mL); Minimal inhibitory concentration (S. typhimurium KCTC 1925; S. typhimurium KCTC 1925, MHB, 18 hours at 37° C.): 4 µM (≈ 8.35 µg/mL)
CC[C@H](C)[C@H](NC(=O)[C@H](CCCNC(=N)N)NC(=O)[C@H](CCC(N)=O)NC(=O)[C@@H](NC(=O)[C@@H](NC(=O)[C@H](CCCNC(=N)N)NC(=O)[C@H](CCCCN)NC(=O)[C@H](Cc1ccccc1)NC(=O)[C@H](CCC(=O)O)NC(=O)[C@@H](N)CCCCN)[C@@H](C)CC)C(C)C)C(=O)N[C@@H](CCCCN)C(=O)N[C@@H](CCCCN)C(=O)N[C@@H](Cc1ccccc1)C(=O)N[C@@H](CC(C)C)C(=O)N[C@@H](CCCNC(=N)N)C(=O)N[C@@H](CC(N)=O)C(N)=O [LL37-3, KEFKRIVQRIKKFLRN-NH2] (H-KEFKRIVQRIKKFLRN-NH2; N-terminus assumed)	64 (≈ 135 µg/mL)	32 (≈ 67.3 µg/mL)	8 (≈ 16.8 µg/mL)	61	38	34	32	30	60	62	26	24	20	52	41	29	25	23	bacteria membrane was damaged	increase in expression level of HMGB-1 and late cytokine is lower	
CC[C@H](C)[C@H](NC(=O)[C@H](CCCNC(=N)N)NC(=O)[C@H](CCC(N)=O)NC(=O)[C@@H](NC(=O)[C@@H](NC(=O)[C@H](CCCNC(=N)N)NC(=O)[C@H](CCCCN)NC(=O)[C@H](Cc1ccccc1)NC(=O)[C@H](CCCCN)NC(=O)[C@@H](N)CCCCN)[C@@H](C)CC)C(C)C)C(=O)N[C@@H](CCCCN)C(=O)N[C@@H](CCCCN)C(=O)N[C@@H](Cc1ccccc1)C(=O)N[C@@H](CC(C)C)C(=O)N[C@@H](CCCNC(=N)N)C(=O)N[C@@H](CC(N)=O)C(N)=O [LL37-4, KKFKRIVQRIKKFLRN-NH2] (H-KKFKRIVQRIKKFLRN-NH2; N-terminus assumed)	16 (≈ 33.6 µg/mL)	16 (≈ 33.6 µg/mL)	4 (≈ 8.41 µg/mL)	49	37	33	33	30	74	59	49	22	20	48	32	28	23	22	bacteria membrane was damaged	increase in expression level of HMGB-1 and late cytokine is lower	decrease in clear zone compared to no treatment with trypsin ([4]; KCTC 2508, 18 h): 1.75 mm; antimicrobial activity after reaction with trypsin [4]: showed the antimicrobial activity
CC[C@H](C)[C@H](NC(=O)[C@H](CCCCN)NC(=O)[C@H](CCC(=O)O)NC(=O)[C@H](CCCCN)NC(=O)[C@H](CO)NC(=O)[C@H](CCCCN)NC(=O)[C@H](CCCNC(=N)N)NC(=O)[C@H](Cc1ccccc1)NC(=O)[C@H](Cc1ccccc1)NC(=O)[C@H](CC(=O)O)NC(=O)CNC(=O)[C@H](CC(C)C)NC(=O)[C@@H](N)CC(C)C)C(=O)NCC(=O)N[C@@H](CCCCN)C(=O)N[C@@H](CCC(=O)O)C(=O)N[C@@H](Cc1ccccc1)C(=O)N[C@@H](CCCCN)C(=O)N[C@@H](CCCNC(=N)N)C(=O)N[C@H](C(=O)N[C@H](C(=O)N[C@@H](CCC(N)=O)C(=O)N[C@@H](CCCNC(=N)N)C(=O)N[C@H](C(=O)N[C@@H](CCCCN)C(=O)N[C@@H](CC(=O)O)C(=O)N[C@@H](Cc1ccccc1)C(=O)N[C@@H](CC(C)C)C(=O)N[C@@H](CCCNC(=N)N)C(=O)N[C@@H](CC(N)=O)C(=O)N[C@@H](CC(C)C)C(=O)N[C@H](C(=O)N1CCC[C@H]1C(=O)N[C@@H](CCCNC(=N)N)C(=O)N[C@H](C(=O)N[C@@H](CCC(=O)O)C(=O)N[C@@H](CO)C(N)=O)[C@@H](C)O)C(C)C)[C@@H](C)CC)C(C)C)[C@@H](C)CC [LL37]	64 (≈ 288 µg/mL)	32 (≈ 144 µg/mL)	32 (≈ 144 µg/mL)	62	58	54	53	13	97	74	40	36	15	42	39	33	23	10	bacteria membrane was damaged	has increased more	antimicrobial activity after reaction with trypsin [4]: did not exhibit any antimicrobial activity
